Reference: PMC6773697, “Antileukemic activity of novel adenosine derivatives” (Scientific Reports, 2019)

How the values were obtained:
Assay type in all cases: cell-based, human
[1] = tested on: caspase-3/7 in MOLT-4 cells; assay: Caspase 3/7 assay, MOLT-4; conditions: MOLT-4, 48 h
Protocol: (§1) The activities of caspases-3 and −7 were estimated with CellEvent™ Caspse-3/7 Green Detection Reagent (Thermo Fisher Scientific) according to the manufacturer’s protocol. The cells were seeded on 96-well plates (15 × 10^3/ well) and 24 h later, incubated with the appropriate drugs for 24 h or 48 h. The cells were fixed by adding a final concentration of 4% paraformaldehyde solution (10 min, room temperature). Cells were labeled with CellEvent™Caspase-3/7 Green Detection Reagent (5 µM), followed by Hoechst 33342 (5 µg/ml) for 15 minutes in complete medium3. Caspase-3/7 Green Detection Reagent was diluted into PBS with 5% FBS to avoid fluorescence background. […] Fluorescence intensity was measured using a Fluoroskan Ascent FL plate reader (Labsystem, Sweden). Cysteine protease activity was expressed as a ratio of fluorescence of the drug-treated samples to the corresponding untreated controls (taken as 100%). In some experimental variants, cells were preincubated for 1 h with VE-821 (10 µM) or Z-FA-FMK (caspas-3 inhibitor, 0.5 µM) to confirm that the fluorescence observed in both control and drug-treated cells was due to the presence of caspase-3/7 in samples. […]

[2] = tested on: MOLT-4 cells; assay: Alkaline comet assay, MOLT-4; conditions: MOLT-4, 48 h, 80 nM
Protocol: (§2) Single cell gel electrophoresis (comet assay) was used to detect alkali labile sites, single and double DNA strand breaks, and cross-links induced by genotoxic agents. After electrophoresis and gel staining with 4,6-diamidino-2-phenylindole (DAPI), the released DNA was visible under a fluorescence microscope as a characteristic comet tail. The cells were plated on 24-well plates (20,000 cells/mL) and treated with CLA, CLA-FMOR, CLA-FPIP, or CLA-FPIR at the indicated concentrations for 2, 24, and 48 h at 37 °C. Some cells were preincubated with an ATR kinase inhibitor (VE-821) for 1 h at 37 °C before adding the tested compounds. Next, cells were collected into Eppendorf tubes and rinsed with PBS. Then, cells were suspended in 0.75% low melting point (LMP) agarose dissolved in PBS (pH 7.4) and placed on microscope slides precoated with 0.5% normal melting point (NMP) agarose. […] The slides were stored in a wet chamber at 4 °C and analyzed under a fluorescence microscope. Fifty randomly selected cells from each slide were measured using image analysis (Nikon, Japan) attached to a COHU 4910 video camera, which was equipped with a UV-1 filter block consisting of an excitation filter (359 nm) and a barrier filter (461 nm) connected to the image analysis system Lucia-Comet v. […] In the samples preincubated with VE-821, the level of DNA damage associated with the ATR kinase was determined.

[3] = tested on: HL-60 cells; assay: Alkaline comet assay, HL-60; conditions: HL-60, 48 h
Protocol: as §2

[4] = tested on: MOLT-4 cells; assay: Comet assay with proteinase K post-treatment (DNA-protein cross-links), MOLT-4; conditions: MOLT-4, 24 h
Protocol: as §2, with “determined. […]” for “determined.”

[5] = tested on: dCK in MOLT-4 cells; assay: Deoxycytidine kinase activity, MOLT-4; conditions: MOLT-4, 24 h incubation
Protocol: Deoxycytidine kinase activity was measured in accordance with the manufacturer’s protocol. The cells, at final concentration were plated at 1 × 10^6 cells per 24-well plates and cultured with the tested compounds for 24 h. Some cells were preincubated with an ATR kinase inhibitor (VE-821) for 1 h at 37 °C before adding the tested compounds. After drug treatment, the cells were washed with PBS and resuspended in an ice-cold cytosol extraction buffer containing 1 mM phenylmethylsulfonyl fluoride (PMSF) and a protease inhibitor cocktail. The cell lysate was centrifuged at 10,000 × g for 30 min at 4 °C. The protein concentration was determined using the Bradford method. The supernatant (cytosolic fraction) was collected and stored at −80 °C. The clarified cytoplasm extracts, dCK standards, and blank control were added to the appropriate microtiter plate wells with a biotin-conjugated polyclonal antibody prepared specifically for dCK. Avidin conjugated to horseradish peroxidase (HRP) was added to each microplate well and incubated. Then, a TMB substrate solution was added to the plate. […] The enzyme-substrate reaction was terminated by addition of a sulfuric acid solution. The color change was measured spectrophotometrically at a wavelength of 450 nm using a microplate reader (BioTek).

[6] = tested on: caspase-3/7 in THP-1 cells; assay: Caspase 3/7 assay, THP-1; conditions: THP-1, 48 h
Protocol: as §1

SMILES | caspase-3/7 level [1] | DNA fragmentation, percentage of the DNA in the comet tail [2] | DNA damage relative to that induced by the unmodified drug [3] | DNA fragmentation, percentage of the DNA in the comet tail ([3]; 130 nM) | percentage of DNA in the comet tail after proteinase K [4] | dCK activity [5] | caspase-3/7 level [6]
OC[C@H]1O[C@@H](n2cnc3c(N=CN4CCOCC4)nc(Cl)nc32)C[C@@H]1O [CLA-FMOR, [6-deamino-6-(N′, N′-3′-oxa-1′, 5′-pentamethyleneformamidine)] cladribine] | highest changes | 27% | two-fold higher | 24% | increase in the percentage of DNA in the comet tail | highest dCK activity | 
OC[C@H]1O[C@@H](n2cnc3c(N=CN4CCCC4)nc(Cl)nc32)C[C@@H]1O [CLA-FPIR, [6-deamino-6-(N′, N′-l′, 4′-tetramethyleneformamidino)] cladribine] |  |  |  |  |  |  | highest changes
